Results as given in US20240108753A1, “NUCLEIC ACID DELIVERY” (NUNTIUS THERAPEUTICS LIMITED, priority 2021, published 2024).

Key:
[1] = tested on: clathrin mediated endocytosis, caveolae-mediated endocytosis and micropinocytosis; test: Endocytic experiments: transfection in the presence of uptake inhibitors; type: cell-based; details: inhibitor added to G1,2,3-RL-D/D-DNA nanoparticle transfection
Procedure: The uptake mechanism of the composition of the invention was investigated. Chlorpromazine was used to inhibit clathrin mediated endocytosis. Genistein and Rottlerin were also used; these agents have been reported to inhibit caveolae-mediated endocytosis and micropinocytosis respectively.
Cells were preincubated with each inhibitor (chlorpromazine, genstein and rottlerin) for 30 min at 37 C.
Subsequently transfection was performed for a further 4 h at 37 C as described in the transfection section, in the presence of the inhibitor.

HeLa cells [2] = test: DNA (pCl-Luc luciferase plasmid) transfection with peptide dendrimer and lipid; type: cell-based, human; details: 0.25 μg pCl-Luc
Procedure: Cell Lines, transfection reagents and plasmids. HeLa cells were maintained in RPMI medium with 10% (v/v) FCS and 1% (v/v) P/S in a humidified atmosphere in 5% CO2 and 37° C. The plasmid pCl-Luc was derived from plasmid pCl (Promega, Southampton, UK) with the luciferase gene inserted. Branched PEI (25 kDa) was purchased from Sigma-Aldrich. Lipofectamine 2000 (L2000) and Lipofectin (DOTMA:DOPE, 1:1 (w/w)) were obtained from Invitrogen. PEI, L2000 and lipofectin were used as positive control transfection agents in accordance with the manufacturer's instructions.
Transfection procedure. 24 hours before transfection, HeLa cells were seeded (10,000 cells in 100 μL/well) in 96 well plates in order to reach 70% confluence. Plasmid transfection complexes were formed by mixing the dendrimers (100 μL, from 60 μg to 105 μg, dependent on N/P ratios) with lipofectin (4 μg; 100 μL). These mixtures were incubated with a pCl-Luc (4 μg; 100 μL) at different N/P ratios in OptiMEM for 30 min at 25° C. Transfection control complexes (PEI, Lipofectin or L2000) (total 100 μL in OptiMEM) were mixed with pCl-Luc (4 μg; 100 μL) at the respective manufacturers' recommended concentrations. For transfection in serum-free medium, before overlaying the DNA complexes on the cells, OptiMEM was added to dilute the complexes, so that each complex contained 0.25 μg DNA in a total volume of 100 μL in one well of a 96 well plate. For transfection in serum medium, before overlaying the DNA complexes on the cells, full growth medium was added to dilute the complexes, so that each complex contained 0.25 μg DNA in a total volume of 100 μL in one well of a 96 well plate. After removing complete media from the cells, the complexes were added to the plates. The plates were incubated for 4 hours at 37° C. Then, the transfection solutions were replaced by full growth media for 24 hours before luciferase activity was assayed.
Transgene expression assay. The cells were washed twice with PBS and incubated with reporter lysis buffer (20 μL, Promega) for 20 min at 4° C., then overnight at −80° C. After the cells were defrosted at room temperature, luciferase assay buffer (100 μL, Promega; prepared according to the manufacturer's protocol) was added to each well. The luminescent product was measured by Relative Light Units (RLU) in a FLUOstar Optima luminometer (BMG Labtech).
Protein content determination. The protein content of each cell lysate was determined by mixing the lysate (20 μL) with Bio-Rad Protein Assay Reagent (180 μL, Bio-Rad, Hemel Hempstead, UK). After incubation of 10 min, the absorbance at 590 nm was measured and converted to protein concentration using a BSA standard curve. RLU per mg of protein represented luciferase activity. The ratio of these two values is the activity per protein unit (in RLU/mg).

Neuro2A cells = test: as above; type: cell-based, mouse; details: 0.25 μg pCl-Luc
mice tissue = test: In vivo luciferase mRNA expression assays; details: intravenous, 6 hours; for luciferase expression in tissues, mRNA delivery: NP 0.15:1, DOTMA/DOPE w/w=10:1 to mRNA
Procedure: Peptide dendrimers were diluted to a respective concentration and mixed with mRNA for a desired NP ratio such as NP=0.15:1 or 8:1. The solution was incubated in room temperature for 10 mins. Lipid such as DOTMA/DOPE was diluted to a respective concentration and mixed with the dendrimer-mRNA complexes for a desired NP ratio such as NP-4.7:1. The solution was incubated in room temperature for 20 mins. When required, the solution would be further diluted before injection.
All animal procedures conducted in our studies complied with UK laws and were inclusive of ethics approval. Female CD-1 mice (n=39) aged 6-8 weeks left to habituate for 1-week upon their arrival. All mice were weighed, and the formulations were delivered intravenously (100 μl) via the tail vein using 30G insulin syringes (BD biosciences).
All mice were imaged 6 hours post injection. BLI was performed using an IVIS Lumina II (Perkin Elmer) Imaging system. Mice were administered D-luciferin (30 mg/mL, XenoLight, Perkin Elmer) at a dose of 150 mg/kg. Mice were anaesthetised 6 mins after receiving D-luciferin in a chamber with 5% isoflurane and then placed on a heated imaging platform while being maintained on 2.5% isoflurane. Mice were imaged 10 min post administration of D-luciferin with an exposure time set to ensure the signal acquired was within an effective detection range (open filter, binning 8, f-stop 1). Bioluminescence signal was quantified by measuring photon flux (photons/s) in the defined region of interest (ROI) using the Living Image software (Perkin Elmer). Following in vivo whole-body imaging, the mice were euthanised, cardiac blood taken, and the tissues extracted for ex vivo imaging. Here each tissue was placed into individual wells of a 24-well imaging plate (black sided, Eppendorf) containing 0.3 mg/mL D-luciferin in PBS). The imaging plate was placed in the centre of imaging platform (Lumina II system) and signal was measured using the acquisition settings detailed above. Finally, the tissues were placed in storage vials and flash frozen in liquid nitrogen.
Mice were injected with a composition comprising DOTMA/DOPE, mRNA encoding luciferase and either G1,2,3-RL, (FIG. 10, top panel; the “G1,2,3-RL, lipid and mRNA formulation”) or G1,2-RL,3-LR (FIG. 10, bottom panel: the “G1,2,3-RL, lipid and mRNA formulation”). Each formulation was prepared and injected at an NP ratio of 8:1 and 0.15:1. Mice were prepared for detection of luciferase expression post injection.

HeLa cells [3] = test: mRNA (eGFP) transfection with peptide dendrimers and DOTMA/DOPE in full growth medium; type: cell-based, human; details: HeLa; full growth medium; DOTMA/DOPE w/w 10:1 to mRNA; relative to G1,2-RL, 3-LR
Procedure: FIG. 28. mRNA transfection of the peptide dendrimers with lipid system in vitro. […] The mRNA used expressed an eGFP reporter gene. Following a 24 hour transfection, the cells were harvested to assay the eGFP expression. The eGFP expression was normalised with the total amount of protein of each transfection. The gene expression level was calculated by normalising the transfection value of the G1,2-RL, 3-LR, DOTMA/DOPE & mRNA treated cells. 1st, 2nd and 3rd generation dendrimers with varying cores and 1st, 2nd, and 3rd generation peptide motifs can transfect cells with mRNA effectively under the tested conditions.
FIG. 29. mRNA transfection of the peptide dendrimers with lipid system in vitro. HeLa cells were transfected with mRNA alone or mRNA with peptide dendrimers and DOTMA/DOPE (w/w=10:1 to mRNA). The N:P ratio of G1,2-RL,3-LR was at 0.16:1 while the N:P ratios of all other dendrimers at 8:1. The mRNA used expressed an eGFP reporter gene. Following a 24 hour transfection, the cells were harvested to assay the eGFP expression. The eGFP expression was normalised with the total amount of protein of each transfection. The gene expression level was calculated by normalising the transfection value of the G1,2-RL, 3-LR, DOTMA/DOPE & mRNA treated cells. 1st, 2nd and 3rd generation dendrimers with varying cores and 1st, 2nd, and 3rd generation peptide motifs can transfect cells with mRNA effectively under the tested conditions.
The effect on the number of generations of dendrimers on mRNA delivery was studied by transfecting HeLa cells in full growth medium conditions.

[4] = Hydrodynamic size, polydispersity index and zeta potential of dendrimer, lipid and mRNA complexes; type: physicochemical; details: DOTMA/DOPE w/w 10:1 to mRNA; for Hydrodynamic size: dendrimer, lipid and mRNA complexes
Procedure: The hydrodynamic size, polydispersity index and Zeta potential was determined for a set of the dendrimers disclosed in Tables 1 and 2.

immune cells = test: Immune cell targeting: uptake of labelled mRNA after intravenous injection (flow cytometry); type: in vivo, mice
Procedure: Fifteen 5-7-week-old female CD-1 mice (Charles River UK) were dosed with 1 mg/kg of either mRNA labelled with Alexa Fluor488 only or mRNA labelled with Alexa Fluor488 with NTX1 and DOTMA/DOPE or mRNA labelled with Alexa Fluor488 with G1,2-RL, 3-LR and DOTMA/DOPE or mRNA labelled with Alexa Fluor488 with G1,2-RL, 3-LR and DOTMA/DOPE, respectively, via intravenous injection using a dose volume of 5 ml/kg. Group 1 received vehicle and Group 5 received mRNA alone as controls. Mice in al groups were culled 2 hours post IV administration. At the time of euthanasia, whole blood, spleen, inguinal lymph nodes and femurs were collected from all mice. White Blood Cells (WBC) were obtained from EDTA treated whole blood, spleen, inguinal lymph nodes and bone marrow for flow cytometry analysis. In short, bone marrow (BM) was flushed from femurs, and spleens and lymph nodes were processed to single cell suspensions by passing them through a 70 μm filter. Red blood cells in blood, BM and spleen were lysed before isolated WBCs from all tissues were stained with different antibody panels to identify specific sub-populations of immune cells. The staining was performed in a 96-well plate format before samples were analysed using an ACEA Novocyte 3005 flow cytometer.

CN(C)CCCN1c2ccccc2Sc2ccc(Cl)cc21 [Chlorpromazine]
inhibition of transfection [1]: 80%

O=c1c(-c2ccc(O)cc2)coc2cc(O)cc(O)c12 [Genistein]
inhibition of transfection [1]: around 50%

CC(=O)c1c(O)c(C)c(O)c(Cc2c(O)c3c(c(C(=O)/C=C/c4ccccc4)c2O)OC(C)(C)C=C3)c1O [Rottlerin]
inhibition of transfection [1]: around 50%

(K)8(KK)4(KK)2KGSC-NH2 [G1,2,3-K]
DNA transfection efficiency (luciferase, normalised to D/D), in words (HeLa cells [2]): not as effective as G1,2,3-KL | DNA transfection efficiency (luciferase, normalised to D/D), in words (Neuro2A cells): not as effective as G1,2,3-KL

(KL)4(KKL)2KGSC-NH2 [G1,2-KL]
DNA transfection efficiency (luciferase, normalised to D/D), in words (HeLa cells [2]): higher efficiency than in Neuro2A cells

(KL)8(KKL)4(KKL)2KGSA-NH2 [Ala-G1,2,3-KL]
DNA transfection efficiency (luciferase, normalised to D/D), in words (HeLa cells [2]): did not affect the transfection results | DNA transfection efficiency (luciferase, normalised to D/D), in words (Neuro2A cells): did not affect the transfection results

(KL)8(KKL)4(KKL)2KKLC-NH2 [G0,1,2,3-KL]
DNA transfection efficiency (luciferase, normalised to D/D), in words (HeLa cells [2]): did not affect the transfection results | DNA transfection efficiency (luciferase, normalised to D/D), in words (Neuro2A cells): did not affect the transfection results

(LK)8(KLK)4(KLK)2KGSC-NH2 [G1,2,3-LK]
DNA transfection efficiency (luciferase, normalised to D/D), in words (HeLa cells [2]): did not have a significant difference | DNA transfection efficiency (luciferase, normalised to D/D), in words (Neuro2A cells): did not have a significant difference

(LR)4(KRL)2KRHC-NH2 [RHCG1-RL, 2-LR]
targeting mRNA delivery to the spleen and lung compared to G1,2-RL, 3-LR (mice tissue; N:P 0.15:1 or 8:1): higher efficiency than the third generation dendrimer G1,2-RL, 3-LR | mRNA transfection efficiency (eGFP), in words (HeLa cells [3]): can transfect cells effectively | Polydispersity Index (PDI) ([4]; N:P 0.16:1): 0.155 | Zeta Potential ([4]; N:P 0.16:1): 41 mV | Polydispersity Index (PDI) ([4]; N:P 8:1): 0.109 | Zeta Potential ([4]; N:P 8:1): 46 mV | Hydrodynamic size ([4]; N:P 0.16:1): 117 nm | Hydrodynamic size ([4]; N:P 8:1): 206 nm

(LR)8(KRL)4(KRL)2KGSCGAASSLNIAXRXRRBRRXRRBRXB-NH2 [NTX1]
luciferase expression in tissues, mRNA delivery (mice tissue): improves efficiency of mRNA delivery to lung, spleen, and lymph nodes | luciferase expression in tissues, mRNA delivery (mice tissue; listed as NXT1): more effective than G1,2,3-RL and G1,2-RL,3-LR | mRNA transfection efficiency (eGFP), in words (HeLa cells [3]): more effectively than G1,2-RL, 3-RL | Polydispersity Index (PDI) ([4]; N:P 0.16:1): 0.13 | Zeta Potential ([4]; N:P 0.16:1): 37 mV | Hydrodynamic size ([4]; N:P 0.16:1): 128 nm | delivery of mRNA to immune cells (immune cells; blood, 2 hours post-injection): Delivery of mRNA to a wide range of immune cells present in the blood is possible | uptake of mRNA in immune cells (immune cells; bone marrow, 2 hrs post-injection): mediated uptake of mRNA in immune cells present in the bone marrow

(RL)4(KRL)2KGSC-NH2 [G1,2-RL]
DNA transfection efficiency (luciferase, normalised to D/D), in words (HeLa cells [2]): higher transfection efficiency | DNA transfection efficiency (luciferase, normalised to D/D), in words (Neuro2A cells): higher transfection efficiency

(kl)8(kkl)4(kkl)2kgsc-NH2 [D-G1,2,3KL]
DNA transfection efficiency (luciferase, normalised to D/D), in words (HeLa cells [2]): did not have any significant impact on transfection | DNA transfection efficiency (luciferase, normalised to D/D), in words (Neuro2A cells): did not have any significant impact on transfection
